What was measured:
Assay in all cases: Weeding effect in post-emergence stage
Type in all cases: in vivo
Details in all cases: 250 g/ha; 2 leaf stage; 15 days after application; fresh weight control rate
[1] = system: Amaranthus retroflexus
How it was run: (§1)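 Post-emergence spray, 2-leaf stage; doses 500–15 g/ha; acetone + Tween 80 + methyl oleate EC (1.5 L/ha) as synergist. Greenhouse 15 d. Readout: fresh weight control rate graded levels 0–5 (5 = above 85%, 0 = below 5%); triplicate means.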

[2] = system: Abutilon theophrasti
How it was run: as §1

[3] = system: Digitaria sanguinalis
How it was run: as §1

[4] = system: Echinochloa crusgali
How it was run: as §1

[5] = system: Setaria viridis
How it was run: as §1

Compound	weeding effect in post-emergence stage, activity level (growth control rate), Amaranthus retroflexus [1]	weeding effect in post-emergence stage, activity level (growth control rate), Abutilon theophrasti [2]	weeding effect in post-emergence stage, activity level (growth control rate), Digitaria sanguinalis [3]	weeding effect in post-emergence stage, activity level (growth control rate), Echinochloa crusgali [4]	weeding effect in post-emergence stage, activity level (growth control rate), Setaria viridis [5]
Cc1nnc(NC(=O)c2ccc(C(F)(F)F)c([S@+]([O-])CCC(F)F)c2F)o1 [Compound 28]	5 (Level 5: growth control rate is above 85%)	5 (Level 5: growth control rate is above 85%)	5 (Level 5: growth control rate is above 85%)	5 (Level 5: growth control rate is above 85%)	5 (Level 5: growth control rate is above 85%)
CSc1c(C(=O)Nc2nnc(C)o2)ccc(C(F)(F)F)c1[S@+]([O-])CC#N [Compound 564]	5 (Level 5: growth control rate is above 85%)	5 (Level 5: growth control rate is above 85%)	5 (Level 5: growth control rate is above 85%)	5 (Level 5: growth control rate is above 85%)	5 (Level 5: growth control rate is above 85%)
Cc1nnc(NC(=O)c2ccc(C(F)(F)F)c([S@+]([O-])CCCO)c2F)o1 [Compound 55]	5 (Level 5: growth control rate is above 85%)	5 (Level 5: growth control rate is above 85%)	5 (Level 5: growth control rate is above 85%)	5 (Level 5: growth control rate is above 85%)	5 (Level 5: growth control rate is above 85%)
COc1c(C(=O)Nc2nnc(C)o2)ccc(C(F)(F)F)c1[S@+]([O-])CCCF [Compound 320]	5 (Level 5: growth control rate is above 85%)	5 (Level 5: growth control rate is above 85%)	5 (Level 5: growth control rate is above 85%)	5 (Level 5: growth control rate is above 85%)	5 (Level 5: growth control rate is above 85%)
COc1c(C(=O)Nc2nnc(C)o2)ccc(C(F)(F)F)c1[S@+]([O-])CC(C)O (stereo partly drawn) [Compound 336]	5 (Level 5: growth control rate is above 85%)	5 (Level 5: growth control rate is above 85%)	5 (Level 5: growth control rate is above 85%)	5 (Level 5: growth control rate is above 85%)	5 (Level 5: growth control rate is above 85%)
CCn1nnnc1NC(=O)c1ccc(C(F)(F)F)c([S@+]([O-])CC)c1OC [Compound 446]	5 (Level 5: growth control rate is above 85%)	5 (Level 5: growth control rate is above 85%)	5 (Level 5: growth control rate is above 85%)	5 (Level 5: growth control rate is above 85%)	5 (Level 5: growth control rate is above 85%)
C#CC[S@@+]([O-])c1c(C(F)(F)F)ccc(C(=O)Nc2nnc(C)o2)c1SC [Compound 553]	5 (Level 5: growth control rate is above 85%)	5 (Level 5: growth control rate is above 85%)	5 (Level 5: growth control rate is above 85%)	5 (Level 5: growth control rate is above 85%)	5 (Level 5: growth control rate is above 85%)
CC(C)C[S@@+]([O-])c1c(C(F)(F)F)ccc(C(=O)Nc2nnco2)c1F [Compound 577]	5 (Level 5: growth control rate is above 85%)	5 (Level 5: growth control rate is above 85%)	5 (Level 5: growth control rate is above 85%)	5 (Level 5: growth control rate is above 85%)	5 (Level 5: growth control rate is above 85%)
COC[S@+]([O-])c1c(C(F)(F)F)ccc(C(=O)Nc2nnc(C)o2)c1OC [Compound 342]	5 (Level 5: growth control rate is above 85%)	5 (Level 5: growth control rate is above 85%)	5 (Level 5: growth control rate is above 85%)	5 (Level 5: growth control rate is above 85%)	5 (Level 5: growth control rate is above 85%)
Cc1nnc(NC(=O)c2ccc(C(F)(F)F)c([S@+]([O-])CCC(C)C)c2F)o1 [Compound 9]	5 (Level 5: growth control rate is above 85%)	5 (Level 5: growth control rate is above 85%)	5 (Level 5: growth control rate is above 85%)	5 (Level 5: growth control rate is above 85%)	5 (Level 5: growth control rate is above 85%)
COCC[S@@+]([O-])c1c(C(F)(F)F)ccc(C(=O)Nc2nnc(C)o2)c1SC [Compound 565]	5 (Level 5: growth control rate is above 85%)	5 (Level 5: growth control rate is above 85%)	5 (Level 5: growth control rate is above 85%)	5 (Level 5: growth control rate is above 85%)	5 (Level 5: growth control rate is above 85%)
CCCC[S@@+]([O-])c1c(C(F)(F)F)ccc(C(=O)Nc2nnco2)c1F [Compound 575]	5 (Level 5: growth control rate is above 85%)	5 (Level 5: growth control rate is above 85%)	5 (Level 5: growth control rate is above 85%)	5 (Level 5: growth control rate is above 85%)	5 (Level 5: growth control rate is above 85%)
COC(C)[S+]([O-])c1c(C(F)(F)F)ccc(C(=O)Nc2nnc(C)o2)c1F (stereo not drawn) [Compound 71]	5 (Level 5: growth control rate is above 85%)	5 (Level 5: growth control rate is above 85%)	5 (Level 5: growth control rate is above 85%)	5 (Level 5: growth control rate is above 85%)	5 (Level 5: growth control rate is above 85%)
CCC(=O)[S+]([O-])c1c(C(F)(F)F)ccc(C(=O)Nc2nnc(C)o2)c1F (stereo not drawn) [Compound 167]	5 (Level 5: growth control rate is above 85%)	5 (Level 5: growth control rate is above 85%)	5 (Level 5: growth control rate is above 85%)	5 (Level 5: growth control rate is above 85%)	5 (Level 5: growth control rate is above 85%)
CCC[S@@+]([O-])c1c(C(F)(F)F)ccc(C(=O)Nc2nnc(C)o2)c1C#N [Compound 546]	5 (Level 5: growth control rate is above 85%)	5 (Level 5: growth control rate is above 85%)	5 (Level 5: growth control rate is above 85%)	5 (Level 5: growth control rate is above 85%)	–
Cc1c(C(=O)Nc2nnnn2C)ccc(S(C)(=O)=O)c1[S@+]([O-])CCF [Compound 519]	5 (Level 5: growth control rate is above 85%)	5 (Level 5: growth control rate is above 85%)	5 (Level 5: growth control rate is above 85%)	5 (Level 5: growth control rate is above 85%)	–
